The IC50 is the midpoint of a concentration-inhibition curve.

The source of these data is patent US11325899B2, “Benzofurane and benzothiophene derivatives as PGE2 receptor modulators” (IDORSIA PHARMACEUTICALS LTD, priority 2017, dated 2022).

Holding throughout (format): cell-based
The target of test [1] is T1, PTGER4 (EP4) (Homo sapiens, UniProt P35408).
T1 construct: host or cells: HEK 293 (PathHunter PTGER4 b-arrestin cell line)
The test is described as follows: hEP4 b-arrestin assay (PathHunter HEK 293 PTGER4 b-arrestin cells). To be noted: antagonistic activity, beta-arrestin assay; read-out: hEP4 b-arr IC50. Summed up:
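β-Arrestin recruitment to EP4 was read as enzyme-fragment-complementation chemiluminescence in stably transfected HEK 293 cells. After 15 min compound preincubation at 37 °C (ranges 10 μM–2 nM or 1 μM–0.2 nM), cells were stimulated 120 min with PGE2 at 20 nM, its EC80. IC50 values were fitted from duplicates, with repeat measurements averaged.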

Test [2] deals with T2, EP4 receptor (Homo sapiens, UniProt P35408).
T2 construct: BT549 breast cancer cells, express high endogenous EP4 levels and very low EP2 levels; host or cells: BT549 breast cancer cells
Nature of the test: hEP4 cAMP assay (BT549 breast cancer cells, HTRF cAMP, PGE2 stimulation). To be noted: antagonistic activity, PGE2 6 nM (EC80). The protocol: The antagonistic activities of the compounds of formula (I) on the EP2 and EP4 receptors are also determined in accordance with the following experimental method.
Human tumor cell lines expressing endogenously either EP4 or EP2 are used and cAMP accumulation in cells upon PGE2 stimulation is monitored. SF295 glioblastoma cells express high endogenous EP2 and no EP4, whereas BT549 breast cancer cells, express high endogenous EP4 levels and very low EP2 levels.
As a detection method for cAMP the HTRF (homogeneous time resolved fluorescence) Cisbio kit (HTRF cAMP dynamic 2 kit 20′000 tests Cisbio Cat. #62AM4PEC) was used, which is based on a competitive immunoassay using a Cryptate-labeled anti-cAMP antibody and d2-labeled cAMP. Native cAMP produced by cells or unlabeled cAMP (for the standard curve) compete with exogenously added d2-labeled cAMP (acceptor) for binding to monoclonal anti-cAMP-Eu3+ Cryptate (donor). A FRET signal (Fluorescence Resonance Energy Transfer) is obtained only if the labeled anti-cAMP antibody binds the d2 labelled cAMP, thus the specific signal (i.e. energy transfer) is inversely proportional to the concentration of cAMP in the standard or sample.
The BT549 cells (NCI/No. 0507282) are detached from culture dishes with a cell dissociation buffer (Invitrogen, 13151-014), and collected in growing medium (GM: RPMI1640 (Invitrogen 21875)/10% FCS, 1% Penicilin/streptomycin). Cells are counted washed and resuspended in assay buffer (AB; HBSS, 20 mM HEPES, 0.2% BSA; 2 mM IBMX). 4′000 cells in 5 μl of AB are seeded per well of a small volume 384 well plate (black with flat bottom, Greiner 784076).
Stock solutions of test compounds are made at a concentration of 10 mM in DMSO, and serially diluted in DMSO to concentrations required for inhibition dose response curves (tested concentration range 30 μM-0.4 nM; 30 μM-0.015 nM or 1 uM-0.01 nM).
PGE2 (Cayman 14010, stock solution: 6 μM in DMSO) is used as agonist at 6 nM final concentration, corresponding to EC80.
Two point five microliters of diluted compounds are transferred into the assay plate. Plate is pre-incubated 45 minutes at room temperature. Subsequently, 2.5 microliters of PGE2 (final conc. 6 nM) are transferred into the assay plate. Plate is incubated 30 minutes at room temperature. Five μl of each donor (anti-cAMP cryptate) and acceptor (cAMP-d2) are added and the plate is incubated another hour at room temperature in the dark and then read using a BMG LABTECH PHERAstar reader (Excitation:337 nm, Emission:620 and 665 nm).
The obtained Delta F(fluorescence) values (665 nm/620 nM) are converted into % cAMP values using the measurements of the cAMP calibrator provided in the kit. For each compound concentration the percentage of cAMP compared to DMSO control value as average±STDEV (each concentration is measured in duplicate) is calculated.
IC50 values and curves are generated with XLfit software (IDBS) using Dose-Response One Site model 203. When compounds were measured multiple times, mean values are given.

Test [3] deals with T3, PTGER2 (EP2) (Homo sapiens, UniProt P43116).
T3 construct: host or cells: HEK 293 (PathHunter PTGER2 b-arrestin cell line)
Nature of the test: hEP2 b-arrestin assay (PathHunter HEK 293 PTGER2 b-arrestin cells). To be noted: antagonistic activity, beta-arrestin assay; read-out: hEP2 b-arr IC50. Summed up:
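Antagonism measured as inhibition of PGE2-driven β-arrestin 2 recruitment (enzyme fragment complementation, luminescence) in engineered HEK293 EP2 cells. Agonist: 5 μM PGE2, ~EC80, 120 min at 37 °C after 15 min compound preincubation; test range 10 μM-2 nM or 1 μM-0.2 nM, duplicates, IC50 fitted.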

T3 sequence (P43116 whole entry): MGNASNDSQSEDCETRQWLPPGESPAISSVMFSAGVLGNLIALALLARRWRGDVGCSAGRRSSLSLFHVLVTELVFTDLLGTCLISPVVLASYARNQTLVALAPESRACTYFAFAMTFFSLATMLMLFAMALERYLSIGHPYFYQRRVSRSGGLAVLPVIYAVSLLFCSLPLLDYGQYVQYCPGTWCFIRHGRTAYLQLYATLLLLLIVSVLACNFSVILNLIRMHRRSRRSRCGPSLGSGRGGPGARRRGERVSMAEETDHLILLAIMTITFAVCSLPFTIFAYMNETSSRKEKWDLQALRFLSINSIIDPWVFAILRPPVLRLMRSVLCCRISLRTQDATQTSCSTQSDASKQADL
T1 sequence (P35408 whole entry): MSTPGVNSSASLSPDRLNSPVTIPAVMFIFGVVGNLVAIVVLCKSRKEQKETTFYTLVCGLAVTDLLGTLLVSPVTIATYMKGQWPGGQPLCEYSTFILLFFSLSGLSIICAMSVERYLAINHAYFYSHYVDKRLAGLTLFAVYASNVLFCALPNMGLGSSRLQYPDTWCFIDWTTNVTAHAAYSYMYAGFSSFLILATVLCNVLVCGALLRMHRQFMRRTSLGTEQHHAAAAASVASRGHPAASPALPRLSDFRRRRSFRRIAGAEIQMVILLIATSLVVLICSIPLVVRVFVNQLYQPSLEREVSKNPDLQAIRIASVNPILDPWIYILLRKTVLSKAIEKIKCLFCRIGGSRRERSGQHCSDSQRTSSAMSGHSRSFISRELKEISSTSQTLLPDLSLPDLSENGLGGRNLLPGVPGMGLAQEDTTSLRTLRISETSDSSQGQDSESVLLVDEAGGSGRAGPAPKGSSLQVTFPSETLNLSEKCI
T2 sequence (P35408 whole entry): as above

As to `CCOc1cc(-c2cc(NCCc3c(C)sc4c(C)cccc34)ncn2)ccc1C(C)C(=O)O` (racemic) [Example 126, rac-2-(4-{6-[2-(2,7-Dimethyl-benzo[b]thiophen-3-yl)-ethylamino]-pyrimidin-4-yl}-2-ethoxy-phenyl)-propionic acid], the IC50 worked out at 423 nM in test [1], 425 nM in test [2] and 104 nM in test [3].

With `COc1ccc(Cl)c2c(CCNc3cc(-c4cc(C)c(C(=O)O)s4)ncn3)c(C)sc12` [Example 5, 5-{6-[2-(4-Chloro-7-methoxy-2-methyl-benzo[b]thiophen-3-yl)-ethylamino]-pyrimidin-4-yl}-3-methyl-thiophene-2-carboxylic acid], the IC50 in test [1] turned out to be 247 nM; in test [2], 479 nM; in test [3] it was 106 nM.

`Cc1cc(-c2cc(NCCc3c(C)oc4ccccc34)ncn2)sc1C(=O)O` [Example 6, 3-Methyl-5-{6-[2-(2-methyl-benzofuran-3-yl)-ethylamino]-pyrimidin-4-yl}-thiophene-2-carboxylic acid]: the IC50 is 673 nM in test [1], 549 nM in test [2] and 5 nM in test [3].

Regarding `CCc1oc2c(C)cc(F)cc2c1CCNc1cc(-c2cc(C)c(C(=O)O)s2)ncn1` [Example 7, 5-{6-[2-(2-Ethyl-5-fluoro-7-methyl-benzofuran-3-yl)-ethylamino]-pyrimidin-4-yl}-3-methyl-thiophene-2-carboxylic acid], the IC50 in test [1] came to 577 nM; in test [2], 624 nM; in test [3] it was 283 nM.

On to `Cc1sc2c(C)cccc2c1CCNc1cc(-c2ccc(C(=O)O)cc2)ncn1` [Example 8, 4-{6-[2-(2,7-Dimethyl-benzo[b]thiophen-3-yl)-ethylamino]-pyrimidin-4-yl}-benzoic acid], for which the values for the IC50 in test [1], in test [2] and in test [3] were 1170 nM, 369 nM and 16 nM, respectively.

As for `COc1ccc(Cl)c2c(CCNc3cc(-c4ccc(C(=O)O)c(O)c4)ncn3)c(C)sc12` [Example 9, 4-{6-[2-(4-Chloro-7-methoxy-2-methyl-benzo[b]thiophen-3-yl)-ethylamino]-pyrimidin-4-yl}-2-hydroxy-benzoic acid], the IC50 in test [1] turned out to be 1650 nM; in test [2] it was 550 nM; in test [3] it was 118 nM.

As for `Cc1sc2c(C)cc(F)cc2c1CCNc1cc(-c2ccc(C(=O)O)c(O)c2)ncn1` [Example 10, 4-{6-[2-(5-Fluoro-2,7-dimethyl-benzo[b]thiophen-3-yl)-ethylamino]-pyrimidin-4-yl}-2-hydroxy-benzoic acid], the IC50 is 1040 nM in test [1], 860 nM in test [2] and 58 nM in test [3].

For the compound `CSc1cc(-c2cc(NCCc3c(C#N)sc4c(C)cc(F)cc34)ncn2)ccc1C(=O)O` [Example 12, 4-{6-[2-(2-Cyano-5-fluoro-7-methyl-benzo[b]thiophen-3-yl)-ethylamino]-pyrimidin-4-yl}-2-methylsulfanyl-benzoic acid], the IC50 was 112 nM in test [1], 20 nM in test [2] and 4 nM in test [3].

With `COc1cccc2c(CCNc3cc(-c4ccc(C(=O)O)c(SC)c4)ncn3)c(C#N)sc12` [Example 13, 4-{6-[2-(2-Cyano-7-methoxy-benzo[b]thiophen-3-yl)-ethylamino]-pyrimidin-4-yl}-2-methylsulfanyl-benzoic acid], the IC50 in test [1] came to 114 nM; in test [2], 27 nM; in test [3] it was 51 nM.

Consider `CCOc1cc(-c2cc(NCCc3c(C)sc4c(C)cc(F)cc34)ncn2)sc1/C=C/C(=O)O` [Example 96, (E)-3-(3-Ethoxy-5-{6-[2-(5-fluoro-2,7-dimethyl-benzo[b]thiophen-3-yl)-ethylamino]-pyrimidin-4-yl}-thiophen-2-yl)-acrylic acid], for which the IC50 in test [1] came to 16 nM; in test [2], 42 nM; in test [3], 20 nM.

As to `CCOc1cc(-c2cc(NCCc3c(C)sc4c(C)cc(F)cc34)ncn2)sc1CCC(=O)O` [Example 97, 3-(3-Ethoxy-5-{6-[2-(5-fluoro-2,7-dimethyl-benzo[b]thiophen-3-yl)-ethylamino]-pyrimidin-4-yl}-thiophen-2-yl)-propionic acid], the IC50 in test [1] is 84 nM; in test [2] it was 105 nM; in test [3], 49 nM.

Regarding `COc1ccc(Cl)c2c(CCNc3cc(-c4ccc(C(=O)O)c(OC(C)C)c4)ncn3)c(C)sc12` [Example 98, 4-{6-[2-(4-Chloro-7-methoxy-2-methyl-benzo[b]thiophen-3-yl)-ethylamino]-pyrimidin-4-yl}-2-isopropoxy-benzoic acid], the IC50 in test [1] is 340 nM; in test [2] it was 216 nM; in test [3], 55 nM.

For `CCCOc1cc(-c2cc(NCCc3c(C)sc4c(C)c(F)ccc34)ncn2)ccc1C(=O)O` [Example 99, 4-{6-[2-(6-Fluoro-2,7-dimethyl-benzo[b]thiophen-3-yl)-ethylamino]-pyrimidin-4-yl}-2-propoxy-benzoic acid], the IC50 in test [1] turned out to be 238 nM; in test [2] it was 450 nM; in test [3] it was 5 nM.

With `CCCOc1cc(-c2cc(NCCc3c(C)sc4c(C)cc(F)cc34)ncn2)ccc1C(=O)O` [Example 100, 4-{6-[2-(5-Fluoro-2,7-dimethyl-benzo[b]thiophen-3-yl)-ethylamino]-pyrimidin-4-yl}-2-propoxy-benzoic acid], the IC50 in test [1] is 299 nM; in test [2], 457 nM; in test [3] it was 12 nM.

Regarding `CCCOc1cc(-c2cc(NCCc3c(C)sc4c(OC)ccc(Cl)c34)ncn2)ccc1C(=O)O` [Example 101, 4-{6-[2-(4-Chloro-7-methoxy-2-methyl-benzo[b]thiophen-3-yl)-ethylamino]-pyrimidin-4-yl}-2-propoxy-benzoic acid], the IC50 in test [1] is 505 nM; in test [2], 482 nM; in test [3], 22 nM.

Turning to `CCCOc1cc(-c2cc(NCCc3c(C)sc4c(Cl)ccc(Cl)c34)ncn2)ccc1C(=O)O` [Example 102, 4-{6-[2-(4,7-Dichloro-2-methyl-benzo[b]thiophen-3-yl)-ethylamino]-pyrimidin-4-yl}-2-propoxy-benzoic acid], the IC50 was determined as 810 nM in test [1], 867 nM in test [2] and 26 nM in test [3].

Take `CCOc1cc(-c2cc(NCCc3c(C)sc4c(C)ccc(F)c34)ncn2)cc(C)c1C(=O)O` [Example 103, 2-Ethoxy-4-{6-[2-(4-fluoro-2,7-dimethyl-benzo[b]thiophen-3-yl)-ethylamino]-pyrimidin-4-yl}-6-methyl-benzoic acid]: the half-inhibitory concentration (IC50) in test [1] is 521 nM; in test [2], 331 nM; in test [3], 79 nM.

For the compound `CCOc1cc(-c2cc(NCCc3c(C#N)sc4c(C)cc(F)cc34)ncn2)ccc1CC(=O)O` [Example 104, (4-{6-[2-(2-Cyano-5-fluoro-7-methyl-benzo[b]thiophen-3-yl)-ethylamino]-pyrimidin-4-yl}-2-ethoxy-phenyl)-acetic acid], the figures for the half-maximal inhibitory concentration (IC50) in test [1], in test [2] and in test [3] were 161 nM, 30 nM and 36 nM, respectively.
